{"source": "paper doi:10.1101/2024.12.17.628051v1", "about": "(biorxiv, 2024)", "key": {"[1]": {"target": "T1, STRAD/MO25 dimer (His-STRAD C160 and MO25) (Homo sapiens, UniProt Q7RTN6)", "T1 sequence (Q7RTN6 59-431)": "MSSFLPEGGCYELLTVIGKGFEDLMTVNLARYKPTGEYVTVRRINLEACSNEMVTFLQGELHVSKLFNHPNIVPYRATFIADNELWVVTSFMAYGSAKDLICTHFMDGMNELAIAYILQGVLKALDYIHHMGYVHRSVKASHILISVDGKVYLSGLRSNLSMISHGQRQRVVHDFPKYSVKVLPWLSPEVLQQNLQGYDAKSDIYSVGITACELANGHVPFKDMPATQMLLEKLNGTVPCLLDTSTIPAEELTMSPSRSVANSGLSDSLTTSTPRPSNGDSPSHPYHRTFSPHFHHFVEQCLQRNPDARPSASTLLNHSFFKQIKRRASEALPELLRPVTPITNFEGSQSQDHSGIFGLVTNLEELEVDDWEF", "T1 sequence (Q9Y376 1-341 partner)": "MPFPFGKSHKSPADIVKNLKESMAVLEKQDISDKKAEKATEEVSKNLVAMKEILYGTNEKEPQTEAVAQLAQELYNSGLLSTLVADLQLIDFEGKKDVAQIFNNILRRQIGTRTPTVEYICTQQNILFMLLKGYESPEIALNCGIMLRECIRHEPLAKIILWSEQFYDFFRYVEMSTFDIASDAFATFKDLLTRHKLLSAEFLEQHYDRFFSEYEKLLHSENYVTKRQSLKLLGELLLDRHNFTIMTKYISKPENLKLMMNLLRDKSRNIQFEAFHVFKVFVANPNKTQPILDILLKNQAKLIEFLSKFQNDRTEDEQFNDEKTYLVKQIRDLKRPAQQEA", "assay": "biochemical", "conditions": "read-out: residual occupancy (Average)"}, "[2]": {"target": "T1, STRAD/MO25 dimer (His-STRAD C160 and MO25)", "assay": "TNP-ATP fluorescence displacement", "type": "binding", "conditions": "50 μM compound, 5 μM STRAD-MO25, 5 μM TNP-ATP, pH 7.5, room temperature"}, "[3]": {"target": "T1, STRAD/MO25 dimer (His-STRAD C160 and MO25)", "assay": "biochemical", "conditions": "read-out: residual occupancy (Average)", "remark": "listed apart in the source"}, "[4]": {"target": "T1, STRAD/MO25 dimer (His-STRAD C160 and MO25)", "assay": "TNP-ATP fluorescence displacement", "type": "binding"}, "[5]": {"target": "T2, LKB1/STRAD/MO25 trimer (Homo sapiens, UniProt Q7RTN6)", "T2 sequence (Q7RTN6 1-431)": "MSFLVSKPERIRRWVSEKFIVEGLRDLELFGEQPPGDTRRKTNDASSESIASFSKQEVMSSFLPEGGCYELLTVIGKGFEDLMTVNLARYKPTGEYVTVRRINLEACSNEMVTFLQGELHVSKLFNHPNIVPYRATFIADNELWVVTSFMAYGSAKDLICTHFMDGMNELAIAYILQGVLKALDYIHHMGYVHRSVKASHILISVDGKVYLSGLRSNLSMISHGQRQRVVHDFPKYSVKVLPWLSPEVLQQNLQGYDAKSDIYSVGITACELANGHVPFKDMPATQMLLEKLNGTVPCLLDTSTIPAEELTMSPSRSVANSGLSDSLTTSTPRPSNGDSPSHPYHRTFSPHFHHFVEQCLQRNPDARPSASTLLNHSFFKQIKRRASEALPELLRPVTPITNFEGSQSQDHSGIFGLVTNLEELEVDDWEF", "T2 sequence (Q15831 1-430 partner)": "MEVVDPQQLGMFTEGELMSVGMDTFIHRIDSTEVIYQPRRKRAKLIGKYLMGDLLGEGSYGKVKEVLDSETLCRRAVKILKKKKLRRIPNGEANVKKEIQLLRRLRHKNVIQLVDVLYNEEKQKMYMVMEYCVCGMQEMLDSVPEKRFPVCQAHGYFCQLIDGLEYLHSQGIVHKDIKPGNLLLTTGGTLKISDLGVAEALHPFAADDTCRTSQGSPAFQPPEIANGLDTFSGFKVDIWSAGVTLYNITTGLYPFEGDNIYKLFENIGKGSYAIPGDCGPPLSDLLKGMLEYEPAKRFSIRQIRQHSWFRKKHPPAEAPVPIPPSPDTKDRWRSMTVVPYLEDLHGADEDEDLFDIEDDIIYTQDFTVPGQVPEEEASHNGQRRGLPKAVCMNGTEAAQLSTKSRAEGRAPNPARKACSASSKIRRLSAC", "T2 sequence (Q9Y376 1-341 partner)": "T1 sequence (Q9Y376 1-341 partner)", "assay": "Caliper mobility-shift kinase assay, Fam-LKBtide", "type": "biochemical"}}, "note": "Like-named read-outs stand apart in the source and are kept apart here."}
{"compound": "N#CC(C#N)=Cc1ccc(O)c(O)c1", "note": "[AG-18]", "values": [{"measurement": "remaining activity at 50 µM", "setting": "[1]", "value": 54, "unit": "%"}]}
{"compound": "COc1cc(N2CCC(N)CC2)ccc1Nc1ncc(Cl)c(-c2c[nH]c3ccccc23)n1", "note": "[AZD3463]", "values": [{"measurement": "Residual Occupancy (Average) at 50 μM", "setting": "[2]", "value": "0.33 ± 0.02", "unit": "fraction"}]}
{"compound": "CCOc1cc(C(=O)N2CCC(N3CCN(C)CC3)CC2)ccc1Nc1ncc2c(n1)N(C1CCCC1)c1ccccc1C(=O)N2C", "note": "[ERK5-IN-1]", "values": [{"measurement": "Residual Occupancy (Average) at 50 μM", "setting": "[2]", "value": "0.46 ± 0.02", "unit": "fraction"}]}
{"compound": "COc1cc(Nc2ncc(F)c(Nc3ccc4c(n3)N(COP(=O)(O)O)C(=O)C(C)(C)O4)n2)cc(OC)c1OC", "note": "[Fostamatinib (R788)]", "values": [{"measurement": "remaining activity at 50 µM", "setting": "[3]", "value": 52, "unit": "%"}]}
{"compound": "Cc1[nH]c2ccccc2c1C1=C(NCCc2ccc(F)cc2)C(=O)N(C)C1=O", "note": "[IM-12]", "values": [{"measurement": "remaining activity at 50 µM", "setting": "[3]", "value": 58, "unit": "%"}]}
{"compound": "Cc1cc(Nc2ncc(Cl)c(Nc3ccccc3S(=O)(=O)C(C)C)n2)c(OC(C)C)cc1C1CCNCC1", "note": "[LDK378]", "values": [{"measurement": "Residual Occupancy (Average) at 50 μM", "setting": "[2]", "value": "0.40 ± 0.03", "unit": "fraction"}]}
{"compound": "Nc1ncnc2c1c(-c1cccc(OCc3ccccc3)c1)cn2[C@H]1C[C@@H](CN2CCC2)C1", "note": "[NVP-AEW541]", "values": [{"measurement": "remaining activity at 50 µM", "setting": "[3]", "value": 19, "unit": "%"}, {"measurement": "IC50", "setting": "[4]", "value": 2.4, "unit": "µM"}]}
{"compound": "Cc1c[nH]c2nc(Nc3ccc(N4CCN(C)CC4)c(F)c3)nc(-c3cccc(CC#N)c3)c12", "note": "[SGI-7079]", "values": [{"measurement": "remaining activity at 50 µM", "setting": "[3]", "value": 56, "unit": "%"}]}
{"compound": "N#C/C(=C(/N)Sc1ccc(N)cc1)c1ccccc1C(F)(F)F", "note": "[SL-327]", "values": [{"measurement": "remaining activity at 50 µM", "setting": "[3]", "value": 54, "unit": "%"}]}
{"compound": "CCOP(=O)(COc1cccc(-c2cn([C@H]3C[C@@H](CN4CCC4)C3)c3ncnc(N)c23)c1)OCC", "note": "[SMALS-323]", "values": [{"measurement": "EC50", "setting": "[5]", "value": 0.48, "unit": "µM"}]}
{"compound": "CCOP(C)(=O)COc1cccc(-c2cn([C@H]3C[C@@H](CN4CCC4)C3)c3ncnc(N)c23)c1", "note": "(stereo partly shown) [SMALS-357]", "values": [{"measurement": "EC50", "setting": "[5]", "value": 5.2, "unit": "µM"}]}
{"compound": "CN1CCN(CCOc2cc(OC3CCOCC3)c3c(Nc4c(Cl)ccc5c4OCO5)ncnc3c2)CC1", "note": "[Saracatinib]", "values": [{"measurement": "Residual Occupancy (Average) at 50 μM", "setting": "[2]", "value": "0.36 ± 0.02", "unit": "fraction"}]}
